Measurements reported in paper PMC6158578, “Optimization and Lead Selection of Benzothiazole Amide Analogs Toward a Novel Antimycobacterial Agent” (Frontiers in Microbiology, 2018).
≈ marks a conversion by molar mass, not a printed value. Read-outs that look alike come from different tables or passages of the source.

Assays:
M. abscessus ATCC 19977 = test: MIC, broth microdilution with resazurin (MHB, 3 days); type: cell-based; conditions: Mycobacteroides abscessus, ATCC19977
[1] = tested on: M. abscessus massiliense 119; test: as above; type: cell-based; conditions: Mycobacteroides abscessus
M. chelonae 93 = test: as above; type: cell-based; conditions: Mycobacteroides chelonae, 93
M. fortuitum 41 = test: as above; type: cell-based; conditions: Mycolicibacterium fortuitum, 41
[2] = tested on: M. peregrinum ATCC 700686; test: as above; type: cell-based; conditions: Mycolicibacterium peregrinum, ATCC700686
M. avium 101 = test: MIC, Middlebrook medium (7H9 + OADC, 7 days); type: cell-based; conditions: Mycobacterium avium, 101, 168 h
M. intracellulare 1956 = test: MIC, Middlebrook medium (7H9 + OADC, 7 days); type: cell-based; conditions: Mycobacterium intracellulare, 1956, 168 h
[3] = tested on: M. tuberculosis H37Rv mc^2 6206; test: microbe, parasite or virus in culture; type: cell-based; conditions: Mycobacterium tuberculosis
S. aureus ATCC 29213 = test: MIC, spectrum of activity; type: cell-based; conditions: Staphylococcus aureus, ATCC29213
E. faecalis ATCC 29212 = test: MIC, spectrum of activity; type: cell-based; conditions: Enterococcus faecalis, ATCC29212
S. pyogenes ATCC 19615 = test: MIC, spectrum of activity; type: cell-based; conditions: Streptococcus pyogenes, ATCC19615
S. pneumoniae ATCC 49619 = test: MIC, spectrum of activity; type: cell-based; conditions: Streptococcus pneumoniae, ATCC49619
[4] = tested on: E. coli tolC CGSC 5633 (efflux mutant strain); test: microbe, parasite or virus in culture; type: cell-based; conditions: Escherichia coli
[5] = tested on: E. coli ATCC 25922 + PMBN (permeabilized); test: MIC, spectrum of activity; type: cell-based; conditions: Escherichia coli, ATCC25922
P. aeruginosa ATCC 35151 = test: MIC, spectrum of activity; type: cell-based; conditions: Pseudomonas aeruginosa, ATCC35151
physchem = type: physicochemical; conditions: pH 7.4, aqueous buffer, thermodynamic from solid
Method: (§1) ADMET assays were performed through NIAID Preclinical Services and Eurofins. Potential for cytotoxicity was monitored in HepG2 cells after 72 h growth in the presence of test compounds, either prepared as 10-point 3-fold serial dilutions or at a fixed 10 μM concentration. Cell viability was measured using the CellTiter-Glo® Luminescent Cell Viability Assay (Promega) or via fluorescent image analysis. Cytotoxicity was expressed as IC50 or as percent reduction of viable cells relative to a reference compound. Metabolic stability of compounds was evaluated via incubation with human liver microsomes at 37°C and quantitative analysis of parent compound by LC-MS/MS in samples removed at 0, 5, 15, 30, and 45 min (Obach, [1999]). For cytochrome P450 (CYP) inhibition assays, compounds were prepared as a 7-point dilution series and incubated with human liver microsomes in buffer containing 2 mM NADPH and probe substrate. […] Thermodynamic solubility of compounds in aqueous media was determined by incubation in 50 mM potassium phosphate buffer (pH 7.4) for 24 h, followed by HPLC-UV detection of compound in the filtrate (Analiza, Cleveland, OH, United States).

[6] = tested on: M. abscessus (n = 20) clinical isolates; test: MIC against rapid-growing NTM clinical isolates; type: cell-based; conditions: for MIC range: M. abscessus (n = 20); for MIC90: Mycobacteroides abscessus
[7] = tested on: M. chelonae (n = 11) clinical isolates; test: MIC against rapid-growing NTM clinical isolates; type: cell-based; conditions: for MIC range: M. chelonae (n = 11); for MIC90: Mycobacteroides chelonae
[8] = tested on: M. fortuitum (n = 11) clinical isolates; test: MIC against rapid-growing NTM clinical isolates; type: cell-based; conditions: for MIC range: M. fortuitum (n = 11); for MIC90: Mycolicibacterium fortuitum
Other NTM (n = 12) = test: MIC against rapid-growing NTM clinical isolates; type: cell-based; conditions: for MIC range: Other NTM (n = 12)
[9] = tested on: mycolic acid transfer in Mabs ATCC19977; test: Metabolic labeling with [14C]acetate; type: cell-based, M. abscessus; conditions: 2x and 10x MIC
[10] = tested on: Mtb intact cells and inverted membrane vesicles; type: cell-based, M. tuberculosis
[11] = 50% complement-inactivated human serum
M. abscessus = tested on: M. abscessus; design: method as in Graham et al., 2018; conditions: SAR of CRS400153 analogs; ref Graham et al., 2018; cited from earlier work
M. chimaera 1502055 = test: MIC, Middlebrook medium (7H9 + OADC, 7 days); type: cell-based; conditions: 1502055, 168 h
C. albicans ATCC 10231 = test: MIC, spectrum of activity; type: cell-based; conditions: Candida albicans, ATCC10231
[12] = tested on: Anaerobes (n > 20 strains); test: organism not typed; type: cell-based
HepG2 cytotoxicity, 72 h = type: cell-based; conditions: human, HepG2 cells, HepG2, 72 h, read-out: HepG2 cytotox., IC50
Method: as §1

CYP2B6 = target: T1, CYP2B6 (Homo sapiens, UniProt P20813); test: CYP inhibition in human liver microsomes; type: in vitro ADME
T1 construct: incubated with human liver microsomes in buffer containing 2 mM NADPH and probe substrate; from tissue; host or cells: human liver microsomes
T1 sequence (P20813 1-491): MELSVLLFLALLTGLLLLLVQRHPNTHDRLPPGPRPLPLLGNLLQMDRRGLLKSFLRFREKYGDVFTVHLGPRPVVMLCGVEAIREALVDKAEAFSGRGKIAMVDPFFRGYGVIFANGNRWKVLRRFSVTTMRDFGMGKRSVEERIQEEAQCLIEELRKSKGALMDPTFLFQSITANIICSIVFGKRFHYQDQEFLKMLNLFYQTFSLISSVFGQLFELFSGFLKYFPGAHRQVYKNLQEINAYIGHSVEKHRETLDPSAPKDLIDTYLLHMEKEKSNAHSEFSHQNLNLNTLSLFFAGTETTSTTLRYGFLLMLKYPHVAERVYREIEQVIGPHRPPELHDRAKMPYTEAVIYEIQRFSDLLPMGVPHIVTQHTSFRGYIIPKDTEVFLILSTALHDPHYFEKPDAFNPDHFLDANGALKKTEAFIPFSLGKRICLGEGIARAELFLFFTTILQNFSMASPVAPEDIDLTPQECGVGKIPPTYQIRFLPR
Method: as §1

CYP3A = test: CYP inhibition in human liver microsomes; type: in vitro ADME
Method: as §1

rapid-growing NTM = test: MIC against rapid-growing NTM; type: cell-based; conditions: read-out: MIC values against rapid-growing NTM
M. avium complex (MAC) = test: MIC against MAC; type: cell-based; conditions: Mycobacterium avium, read-out: MIC against MAC
Mabs 21 = test: Time-kill assay; type: cell-based, M. abscessus; conditions: 10x MIC
[13] = type: cell-based
M. abscessus 1 = test: MIC in MHB versus 7H9+OADC; type: cell-based
M. abscessus 21 = test: MIC in MHB versus 7H9+OADC; type: cell-based
M. abscessus 79 = test: MIC in MHB versus 7H9+OADC; type: cell-based

CC1CC(C(=O)Nc2nc3c(F)cc(F)cc3s2)CC(C)(C)C1 (stereo not shown) [CRS400153]
MIC (M. abscessus ATCC 19977): 0.5 µg/mL (≈ 1.48 µM) | MIC [1]: 0.5 µg/mL (≈ 1.48 µM) | MIC (M. chelonae 93): 0.25 µg/mL (≈ 0.739 µM) | MIC (M. fortuitum 41): 0.25 µg/mL (≈ 0.739 µM) | MIC [2]: 0.12 µg/mL (≈ 0.355 µM) | MIC (M. avium 101): 16 µg/mL | MIC (M. intracellulare 1956): 8 µg/mL | MIC ([3]; 168 h): 1 µg/mL (≈ 2.95 µM) | MIC (S. aureus ATCC 29213): > 64 µg/mL | MIC (E. faecalis ATCC 29212): > 64 µg/mL | MIC (S. pyogenes ATCC 19615): > 64 µg/mL | MIC (S. pneumoniae ATCC 49619): 8 µg/mL (≈ 23.6 µM) | MIC [4]: > 64 µg/mL | MIC [5]: > 64 µg/mL | MIC (P. aeruginosa ATCC 35151): > 64 µg/mL | solubility at 24 h (physchem): 3 µM (≈ 1.02 µg/mL) | MIC range [6]: 0.5 to 2 µg/mL | MIC90 [6]: 1 µg/mL (≈ 2.95 µM) | MIC range [7]: 0.5 to 1 µg/mL | MIC90 [7]: 1 µg/mL (≈ 2.95 µM) | MIC range [8]: 0.5–0.5 μg/mL | MIC90 [8]: 0.5 µg/mL (≈ 1.48 µM) | MIC90 (Other NTM (n = 12)): 1 µg/mL (≈ 2.95 µM) | MIC range (Other NTM (n = 12)): 0.25 to 1 µg/mL | effect on mycolic acid transfer to arabinogalactan and trehalose dimycolates [9]: concentration-dependent inhibition of mycolic acid transfer | effect on membrane potential and electrochemical pH gradient [10]: no effect | Protein (serum) binding [11]: >95% | MIC against M. abscessus (M. abscessus): 0.5 µg/mL (≈ 1.48 µM)

CC12CCCC(C(=O)Nc3nc4cc(Cl)cc(Cl)c4s3)(CCC1)C2 [CRS400393]
MIC (M. abscessus ATCC 19977): 0.03 µg/mL (≈ 0.0783 µM) | MIC [1]: 0.03 µg/mL (≈ 0.0783 µM) | MIC (M. chelonae 93): 0.03 µg/mL (≈ 0.0783 µM) | MIC (M. fortuitum 41): 0.06 µg/mL (≈ 0.157 µM) | MIC [2]: 0.03 µg/mL (≈ 0.0783 µM) | MIC (M. avium 101): 2 µg/mL | MIC (M. intracellulare 1956): 2 µg/mL | MIC (M. chimaera 1502055): 1 µg/mL | MIC ([3]; 168 h): ≤ 0.12 µg/mL | MIC ([3]; read-out: MIC against Mtb): ≤ 0.12 µg/mL | MIC (S. aureus ATCC 29213): > 64 µg/mL | MIC (E. faecalis ATCC 29212): > 64 µg/mL | MIC (S. pyogenes ATCC 19615): > 64 µg/mL | MIC (S. pneumoniae ATCC 49619): 32 µg/mL (≈ 83.5 µM) | MIC [4]: 64 µg/mL (≈ 167 µM) | MIC [5]: > 64 µg/mL | MIC (P. aeruginosa ATCC 35151): 64 µg/mL (≈ 167 µM) | MIC (C. albicans ATCC 10231): > 64 µg/mL | MIC [12]: > 32 µg/mL | IC50 at 72 h (HepG2 cytotoxicity, 72 h): > 10 µM | IC50 at 72 h (HepG2 cytotoxicity, 72 h; value in brackets): > 4 µg/mL | solubility at 24 h (physchem): < 3 µM | inhibition at 10 µM (CYP2B6): 39% | inhibition at 10 µM (CYP3A): 26% | MIC range [6]: ≤ 0.03 to 0.25 µg/mL | MIC90 [6]: 0.25 µg/mL (≈ 0.652 µM) | MIC range [7]: 0.12–0.12 μg/mL | MIC90 [7]: 0.12 µg/mL (≈ 0.313 µM) | MIC range [8]: ≤ 0.03 to 0.5 µg/mL | MIC90 [8]: 0.25 µg/mL (≈ 0.652 µM) | MIC90 (Other NTM (n = 12)): 0.5 µg/mL (≈ 1.3 µM) | MIC range (Other NTM (n = 12)): 0.12 to 0.5 µg/mL | MIC (rapid-growing NTM): 0.03 to 0.5 µg/mL (≈ 0.0783 to 1.3 µM) | MIC (M. avium complex (MAC)): 1 to 2 µg/mL (≈ 2.61 to 5.22 µM) | time-kill kinetics, result in words (Mabs 21): bactericidal activity | drop in Mabs in time-kill assay (Mabs 21; after 5 days): 2 Log10 CFU | effect against Mabs in time-kill assay (Mabs 21; for 3 days): bacteriostatic | interaction when combined with other antimycobacterial agents [13]: additivity and no antagonism | MIC (M. abscessus 1; M. abscessus 1, 7H9 + OADC (5 mg/mL albumin)): 1 µg/mL | MIC (M. abscessus 1; M. abscessus 1, MHB): 0.06 µg/mL (≈ 0.157 µM) | MIC (M. abscessus 21; M. abscessus 21, 7H9 + OADC (5 mg/mL albumin)): 1 µg/mL | MIC (M. abscessus 21; M. abscessus 21, MHB): 0.03 µg/mL (≈ 0.0783 µM) | MIC (M. abscessus 79; M. abscessus 79, 7H9 + OADC (5 mg/mL albumin)): 0.5 µg/mL | MIC (M. abscessus 79; M. abscessus 79, MHB): 0.03 µg/mL (≈ 0.0783 µM) | Protein (serum) binding [11]: >95%
